Molecules are shown by their SMILES. Where a name gives a salt, the structure may show the parent alone.

The experiment has as its system C57BL/6 mice. The experiment in a line: animal or person. The following applies: Mus musculus, sc, 0.5 h, s.c. administration, 30 min, 55° C. water, read-out: ED50 (mg/kg) at 30 min on C57BL/6 mice in Warm-water Tail-flick Test. In kind it is in vivo.
For the compound `CCOC[C@@]1(CCc2nc3ncncc3n2Cc2ccc(OC)cc2)CCN(C(C)(C)c2ccc(C)nc2)C1` [Compound 461, (S)-8-(2-(3-(ethoxymethyl)-1-(2-(6-methylpyridin-3-yl)propan-2-yl)pyrrolidin-3-yl)ethyl)-7-(4-methoxybenzyl)-7H-purine citrate], the ED50 was less than 10 mg/kg.

As to `CCOC[C@@]1(CCc2sccc2C)CCN(Cc2cccnc2)C1` [Compound 462, (S)-3-((3-(ethoxymethyl)-3-(2-(3-methylthiophen-2-yl)ethyl)pyrrolidin-1-yl)methyl)pyridine], the ED50 was less than 10 mg/kg.

Regarding `CCOC[C@@]1(CCc2ccc(C)s2)CCN(Cc2cccnc2)C1` [Compound 463, (S)-3-((3-(ethoxymethyl)-3-(2-(5-methylthiophen-2-yl)ethyl)pyrrolidin-1-yl)methyl)pyridine], the ED50 was less than 10 mg/kg.

For the compound `CCOC[C@@]1(CCc2ccsc2C)CCN(Cc2cccnc2)C1` [Compound 464, (S)-3-((3-(ethoxymethyl)-3-(2-(2-methylthiophen-3-yl)ethyl)pyrrolidin-1-yl)methyl)pyridine], the ED50 was less than 10 mg/kg.

Take `CCOC[C@@]1(CCC2CC2)CCN(C2(c3ccc(C)nc3)CC2)C1` [Compound 466, (S)-5-(1-(3-(2-cyclopropylethyl)-3-(ethoxy-methyl)pyrrolidin-1-yl)cyclopropyl)-2-methylpyridine]: the ED50 is less than 10 mg/kg.

For `Cc1ccc(CN2[C@@H](C)CC(CCc3ccc(F)cn3)(c3ccccn3)C[C@@H]2C)cn1` (stereo partly drawn) [Compound 467, 2-(2-((2S,6S)-2,6-dimethyl-1-((6-methylpyridin-3-yl)methyl)-4-(pyridin-2-yl)piperidin-4-yl)ethyl)-5-fluoropyridine], the ED50 was more than 10 mg/kg.

In the case of `Cc1ccc(C(C)(C)N2CC[C@](CCc3cccs3)([C@@H]3CCC(C)(C)O3)C2)cn1` [Compound 468, 5-(2-((S)-3-((S)-5,5-dimethyltetrahydro-furan-2-yl)-3-(2-(thiophen-2-yl)ethyl)pyrrolidin-1-yl)propan-2-yl)-2-methylpyridine], the ED50 was less than 10 mg/kg.
